In brackets after ≈: the same amount, converted by molar mass. Read-outs that look alike come from different tables or passages of the source.
Tests used:
Details in all cases: Klebsiella pneumoniae
[1] = system: K. pneumoniae NVT1001 ΔramRΔompK35/36 mutant and its revertants; test: Etest MIC, ΔramRΔompK35/36 mutant and its revertants (Table 7); type: cell-based
[2] = system: K. pneumoniae NVT1001 strains with carbapenemase plasmids; test: Etest MIC of β-lactams, OmpK35/36 loss, ΔramR and/or carbapenemase (Table 9); type: cell-based, Klebsiella pneumoniae
Procedure, shortened: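 Cloned resistance genes in pACYC177 or pACYC184 were electroporated into K. pneumoniae NVT1001. MICs were determined by Etest and rounded up to the next two-fold value. Ceftazidime and cefotaxime against the blaOXA-48 construct were also tested by CLSI broth microdilution, with breakpoints from CLSI 2017 (cephalothin CLSI 2015, moxifloxacin EUCAST 2017).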

[3] = system: K. pneumoniae NVT1001 and its ΔompK35/36 and/or ΔramR mutants; test: Etest MIC, OmpK35/36 loss and AcrAB-TolC overexpression (ΔramR) strains (Table 6); type: cell-based, Klebsiella pneumoniae
Procedure, shortened: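 Ceftazidime and cefotaxime were tested by CLSI broth microdilution on the blaOXA-48 pACYC177 transformant of NVT1001, using CLSI 2017 breakpoints. Parent, porin-deleted (ΔompK35/36) and ΔramR strains were tested by Etest, with values between two-fold dilutions rounded up.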

## C[C@@H](O)[C@H]1C(=O)N2C(C(=O)O)=C(S[C@@H]3CN[C@H](C(=O)Nc4cccc(C(=O)O)c4)C3)[C@H](C)[C@H]12 [Ertapenem]
[1]; ΔramRΔompK35/36::ompK35/36 revertant
  MIC: 0.125 µg/mL
[1]; ΔramRΔompK35/36::ompK35 revertant
  MIC: 4 µg/mL
[1]; ΔramRΔompK35/36::ompK36 revertant
  MIC: 0.125 µg/mL
[1]; ΔramRΔompK35/36::ramR revertant
  MIC: 1 µg/mL
[1]; ΔramRΔompK35/36::ramR::ompK35/36 revertant
  MIC: 0.015 µg/mL
[1]; ΔramRΔompK35/36::ramR::ompK35 revertant
  MIC: 0.03 µg/mL
[1]; ΔramRΔompK35/36::ramR::ompK36 revertant
  MIC: 0.03 µg/mL
[1]; ΔramRΔompK35/36 mutant
  MIC: 4 µg/mL
[2]; IMP-8 on pACYC177, WT (NVT1001), read-out: MIC
  MIC: 2 µg/mL
[2]; IMP-8 on pACYC177, Δ35 (ΔompK35 mutant)
  MIC: 4 µg/mL
[2]; IMP-8 on pACYC177, Δ35/36 (ΔompK35/36 mutant)
  MIC: > 32 µg/mL
[2]; IMP-8 on pACYC177, Δ36 (ΔompK36 mutant)
  MIC: 2 µg/mL
[2]; IMP-8 on pACYC177, ΔramR mutant
  MIC: 4 µg/mL
[2]; IMP-8 on pACYC177, ΔramRΔ35 (ΔramRΔompK35 mutant)
  MIC: 4 µg/mL
[2]; IMP-8 on pACYC177, ΔramRΔ35/36 (ΔramRΔompK35/36 mutant)
  MIC: > 32 µg/mL
[2]; IMP-8 on pACYC177, ΔramRΔ36 (ΔramRΔompK36 mutant)
  MIC: > 32 µg/mL
[2]; KPC-2 on pACYC177, WT (NVT1001), read-out: MIC
  MIC: 32 µg/mL
[2]; KPC-2 on pACYC177, Δ35 (ΔompK35 mutant)
  MIC: 32 µg/mL
[2]; KPC-2 on pACYC177, Δ35/36 (ΔompK35/36 mutant)
  MIC: > 32 µg/mL
[2]; KPC-2 on pACYC177, Δ36 (ΔompK36 mutant)
  MIC: 32 µg/mL
[2]; KPC-2 on pACYC177, ΔramR mutant
  MIC: > 32 µg/mL
[2]; KPC-2 on pACYC177, ΔramRΔ35 (ΔramRΔompK35 mutant)
  MIC: > 32 µg/mL
[2]; KPC-2 on pACYC177, ΔramRΔ35/36 (ΔramRΔompK35/36 mutant)
  MIC: > 32 µg/mL
[2]; KPC-2 on pACYC177, ΔramRΔ36 (ΔramRΔompK36 mutant)
  MIC: > 32 µg/mL
[2]; KPC-3 on pACYC177, WT (NVT1001), read-out: MIC
  MIC: 32 µg/mL
[2]; KPC-3 on pACYC177, Δ35 (ΔompK35 mutant)
  MIC: 32 µg/mL
[2]; KPC-3 on pACYC177, Δ35/36 (ΔompK35/36 mutant)
  MIC: > 32 µg/mL
[2]; KPC-3 on pACYC177, Δ36 (ΔompK36 mutant)
  MIC: 32 µg/mL
[2]; KPC-3 on pACYC177, ΔramR mutant
  MIC: 32 µg/mL
[2]; KPC-3 on pACYC177, ΔramRΔ35 (ΔramRΔompK35 mutant)
  MIC: 32 µg/mL
[2]; KPC-3 on pACYC177, ΔramRΔ35/36 (ΔramRΔompK35/36 mutant)
  MIC: > 32 µg/mL
[2]; KPC-3 on pACYC177, ΔramRΔ36 (ΔramRΔompK36 mutant)
  MIC: > 32 µg/mL
[2]; NDM-1 on pACYC177, WT (NVT1001), read-out: MIC
  MIC: 32 µg/mL
[2]; NDM-1 on pACYC177, Δ35 (ΔompK35 mutant)
  MIC: > 32 µg/mL
[2]; NDM-1 on pACYC177, Δ35/36 (ΔompK35/36 mutant)
  MIC: > 32 µg/mL
[2]; NDM-1 on pACYC177, Δ36 (ΔompK36 mutant)
  MIC: > 32 µg/mL
[2]; NDM-1 on pACYC177, ΔramR mutant
  MIC: > 32 µg/mL
[2]; NDM-1 on pACYC177, ΔramRΔ35 (ΔramRΔompK35 mutant)
  MIC: > 32 µg/mL
[2]; NDM-1 on pACYC177, ΔramRΔ35/36 (ΔramRΔompK35/36 mutant)
  MIC: > 32 µg/mL
[2]; NDM-1 on pACYC177, ΔramRΔ36 (ΔramRΔompK36 mutant)
  MIC: > 32 µg/mL
[2]; OXA-48 on pACYC177, WT (NVT1001), read-out: MIC
  MIC: 4 µg/mL
[2]; OXA-48 on pACYC177, Δ35 (ΔompK35 mutant)
  MIC: 8 µg/mL
[2]; OXA-48 on pACYC177, Δ35/36 (ΔompK35/36 mutant)
  MIC: > 32 µg/mL
[2]; OXA-48 on pACYC177, Δ36 (ΔompK36 mutant)
  MIC: 8 µg/mL
[2]; OXA-48 on pACYC177, ΔramR mutant
  MIC: 8 µg/mL
[2]; OXA-48 on pACYC177, ΔramRΔ35 (ΔramRΔompK35 mutant)
  MIC: 8 µg/mL
[2]; OXA-48 on pACYC177, ΔramRΔ35/36 (ΔramRΔompK35/36 mutant)
  MIC: > 32 µg/mL
[2]; OXA-48 on pACYC177, ΔramRΔ36 (ΔramRΔompK36 mutant)
  MIC: > 32 µg/mL
[2]; VIM-1 on pACYC177, WT (NVT1001), read-out: MIC
  MIC: 2 µg/mL
[2]; VIM-1 on pACYC177, Δ35 (ΔompK35 mutant)
  MIC: 4 µg/mL
[2]; VIM-1 on pACYC177, Δ35/36 (ΔompK35/36 mutant)
  MIC: > 32 µg/mL
[2]; VIM-1 on pACYC177, Δ36 (ΔompK36 mutant)
  MIC: 2 µg/mL
[2]; VIM-1 on pACYC177, ΔramR mutant
  MIC: 4 µg/mL
[2]; VIM-1 on pACYC177, ΔramRΔ35 (ΔramRΔompK35 mutant)
  MIC: 4 µg/mL
[2]; VIM-1 on pACYC177, ΔramRΔ35/36 (ΔramRΔompK35/36 mutant)
  MIC: > 32 µg/mL
[2]; VIM-1 on pACYC177, ΔramRΔ36 (ΔramRΔompK36 mutant)
  MIC: > 32 µg/mL
[2]; no supplemental plasmid, WT (NVT1001), read-out: MIC
  MIC: 0.015 µg/mL
[2]; no supplemental plasmid, Δ35 (ΔompK35 mutant)
  MIC: 0.03 µg/mL
[2]; no supplemental plasmid, Δ35/36 (ΔompK35/36 mutant)
  MIC: 2 µg/mL
[2]; no supplemental plasmid, Δ36 (ΔompK36 mutant)
  MIC: 0.03 µg/mL
[2]; no supplemental plasmid, ΔramR mutant
  MIC: 0.125 µg/mL
[2]; no supplemental plasmid, ΔramRΔ35 (ΔramRΔompK35 mutant)
  MIC: 0.125 µg/mL
[2]; no supplemental plasmid, ΔramRΔ35/36 (ΔramRΔompK35/36 mutant)
  MIC: 4 µg/mL
[2]; no supplemental plasmid, ΔramRΔ36 (ΔramRΔompK36 mutant)
  MIC: 4 µg/mL
[3]; WT, NVT1001, read-out: MIC
  MIC: 0.015 µg/mL (≈ 0.0315 µM)
[3]; Δ35, ΔompK35 mutant
  MIC: 0.03 µg/mL (≈ 0.0631 µM)
[3]; Δ35/36, ΔompK35/36 mutant
  MIC: 2 µg/mL (≈ 4.21 µM)
[3]; Δ36, ΔompK36 mutant
  MIC: 0.03 µg/mL (≈ 0.0631 µM)
[3]; ΔramR mutant
  MIC: 0.125 µg/mL (≈ 0.263 µM)
[3]; ΔramRΔ35, ΔramRΔompK35 mutant
  MIC: 0.125 µg/mL (≈ 0.263 µM)
[3]; ΔramRΔ35/36, ΔramRΔompK35/36 mutant
  MIC: 4 µg/mL (≈ 8.41 µM)
[3]; ΔramRΔ36, ΔramRΔompK36 mutant
  MIC: 4 µg/mL (≈ 8.41 µM)
